Measurements as given in US5369112A, “Method of treating cataracts caused by active oxygen” (Mitsubishi Gas Chemical Company, Inc., priority 1991, dated 1994).
Where two headings read alike, the source gives them in different places.

Key:
[1] = Superoxide scavenging activity (hypoxanthine-xanthine oxidase, DMPO spin trapping, ESR); assay type: biochemical; details: Example 2, Table 7; pH 7.3; read-out: O2^- scavenging activity IC50
From the text: Activity of PQQ esters to scavenge superoxide (O2^-) produced in the system of hypoxanthinexanthine oxidase was examined by spin trapping method [using 5,5-dimethyl-l-pyrroline-N-oxide (hereinafter referred to as "DMPO") as a spin trapping agent] where electron spin resonance (hereinafter referred to as "ESR") was used.
Hypoxanthine+2O2 →2O2^- +uric acid (xanthine oxidase)
The following reagents were successively put in a test tube and stirred after addition of the hypoxanthine 7 to initiate the reaction and the reaction mixture was transferred to a quartz cell used for measurement of ESR.
Superoxide scavenging activity of OPQ and esters thereof was examined in the same manner as in Example 1.

[2] = Hydroxy radical scavenging activity (H2O2-(Fe^2+-DTPA), DMPO spin trapping, ESR); assay type: biochemical; details: Example 4, Table 9; pH 7.3; read-out: .OH scavenging activity IC50
From the text: Activity of PQQ esters to scavenge hydroxy radical (·OH) produced in the system of H2 O2 --(Fe^2+ -DTPA) was examined by spin trapping method [using 5,5-dimethyl-1-pyrroline-N-oxide (hereinafter referred to as "DMPO") as a spin trapping agent] where electron spin resonance (hereinafter referred to as "ESR") was used. DTPA means diethylenetriamine-pentaacetic acid.
H2 O2 +Fe^2 -DTPA complex→·OH+OH^-
The following reagents were successively put in a test tube and stirred after addition of H2 O2 6 to initiate the reaction and the reaction mixture was transferred to a quartz cell used for measurement of ESR.
Hydroxy radical scavenging activity of OPQ and esters thereof was examined in the same manner as in Example 3.

mice [3] = details: mouse, in vivo, ip
Description: One group consisted of 8 mice. For administration, PQQ·2Na and OPQ and esters thereof were dissolved in physiological saline and PQQ trimethyl ester and PQQ triallyl ester were suspended in 1% Tween 80-containing physiological saline, respectively.
PQQ·2Na, PQQ trimethyl ester, PQQ triallyl ester and OPQ and esters thereof were intraperitoneally administered to mice and they were bred in the same manner as in the above acute toxicity test. Urine of the mice was taken every day and glucose concentration was measured using clinical examination reagent (trademark: […] 2 manufactured by Miles.Sankyo Co.).

mice [4] = assay: Kidney Toxicity Determined by Blood Examination (1); assay type: in vivo; details: mouse serum
Description: After lapse of one day from the administration, the mice were fasted (with feeding only water) and then after 18 hours, blood was collected and serum was obtained therefrom. Glucose, urea nitrogen and creatinine in the serum were examined by clinical examination reagent (trademark: FUJI DRYCHEMSLIDE manufactured by Fuji Photo Film Co., Ltd.).

[5] = not told
Description: Permeability of various compounds through capsule of crystal bovine lens was examined in accordance with the method mentioned in "Crystal Lens and Biochemical Mechanism thereof" (pages 436-440) edited by Shuzo Iwata (Medical Aoi Publisher). Each compound dissolved in 10 mM HEPES buffer (containing 1% DMSO in the case of PQQ triesters) was put in an apparatus for measurement of membrane permeation constant and left to stand for 16 hours at 35° C. and then amount of the compound which migrated was measured by ultraviolet absorption (243 nm for PQQ·2Na and 255 nm for PQQ esters) to obtain membrane permeation constant.

In the case of `CCC(C)c1nc2c3nc(C(=O)O)cc(C(=O)O)c3c3[nH]c(C(=O)O)cc3c2o1` (centres unmarked) [1-Methylpropyl OPQ, 1-methylpropyl OPQ (R=CH(CH3)CH2 CH3)], the IC50 [1] is reported as 3.53 µM, the IC50 [2] is reported as 252 µM and the glucose in urine (mice [3]; 20 mg/kg) is reported as “-”. The glucose in urine (mice [3]; 40 mg/kg) was “-”, the glucose in urine (mice [3]; 80 mg/kg) was “-” and the glucose in urine (mice [3]; 160 mg/kg) was “-”. The glucose in urine (mice [3]; 200 mg/kg) was “-”, the Creatinine (mice [4]; 40 mg/kg) was 0.80 ± 0.08 mg/dL and the Glucose (mice [4]; 40 mg/kg) was 87 ± 20 mg/dL. The Urea nitrogen (mice [4]; 40 mg/kg) was 26 ± 1 mg/dL, the Creatinine (mice [4]; 80 mg/kg) was 0.78 ± 0.04 mg/dL and the Glucose (mice [4]; 80 mg/kg) was 104 ± 19 mg/dL. The Urea nitrogen (mice [4]; 80 mg/kg) was 22 ± 3 mg/dL, the Creatinine (mice [4]; 160 mg/kg) was 0.78 ± 0.04 mg/dL and the Glucose (mice [4]; 160 mg/kg) was 87 ± 22 mg/dL. It also gave a Urea nitrogen (mice [4]; 160 mg/kg) of 27 ± 4 mg/dL, a Creatinine (mice [4]; 200 mg/kg) of 0.83 ± 0.17 mg/dL and a Glucose (mice [4]; 200 mg/kg) of 66 ± 11 mg/dL. For the same compound, the Urea nitrogen (mice [4]; 200 mg/kg) was 27 ± 6 mg/dL.

Compound `CC(C)Cc1nc2c3nc(C(=O)O)cc(C(=O)O)c3c3[nH]c(C(=O)O)cc3c2o1` [2-Methylpropyl OPQ, 2-methylpropyl OPQ (R=CH2 CH(CH3)2)] has an IC50 [1] of 4.88 µM and an IC50 [2] of 421 µM.

`NC(=O)CCc1nc2c3nc(C(=O)O)cc(C(=O)O)c3c3[nH]c(C(=O)O)cc3c2o1` [2-Carbamoylethyl OPQ, 2-carbamoylethyl OPQ (R=CH2 CH2 CONH2)] gave an IC50 [1] of 3.2 µM and an IC50 [2] of 194 µM.

With `O=C(O)c1cc(C(=O)O)c2c(n1)c1nc(CO)oc1c1cc(C(=O)O)[nH]c12` [Hydroxymethyl OPQ, hydroxymethyl OPQ (R=CH2 OH)] the IC50 [1] was 3.52 µM and the IC50 [2] was 305 µM.

With `CC(C)c1nc2c3nc(C(=O)O)cc(C(=O)O)c3c3[nH]c(C(=O)O)cc3c2o1` [1-Methylethyl OPQ, 1-methylethyl OPQ (R=CH(CH3)2)] the IC50 [1] was 3.14 µM and the IC50 [2] was 200 µM.

In the case of `CCOC(=O)c1cc(C(=O)OCC)c2c(n1)C(=O)C(=O)c1cc(C(=O)OCC)[nH]c1-2` [PQQ triethyl ester], the Membrane permeation constant ([5]; bovine, 960 min) is reported as 1.22 ± 0.37 10 ^-7 cm^2 · sec^-1 and the “membrane permeation constant relative to that of PQQ.2Na” value [5] is reported as “about twice”.

For `CSCCc1nc2c3nc(C(=O)O)cc(C(=O)O)c3c3[nH]c(C(=O)O)cc3c2o1` [2-Methylthioethyl OPQ, 2-methylthioethyl OPQ (R= CH2 CH2 SCH3)], the IC50 [1] was 3.94 µM, the IC50 [2] was 200 µM and the glucose in urine (mice [3]; 20 mg/kg) was “-”. The glucose in urine (mice [3]; 40 mg/kg) was “-”, the glucose in urine (mice [3]; 80 mg/kg) was “-” and the glucose in urine (mice [3]; 160 mg/kg) was “-”. The glucose in urine (mice [3]; 200 mg/kg) was “-”, the Creatinine (mice [4]; 40 mg/kg) was 0.76 ± 0.05 mg/dL and the Glucose (mice [4]; 40 mg/kg) was 96 ± 26 mg/dL. For the same compound, the Urea nitrogen (mice [4]; 40 mg/kg) was 26 ± 4 mg/dL, the Creatinine (mice [4]; 80 mg/kg) was 0.68 ± 0.08 mg/dL and the Glucose (mice [4]; 80 mg/kg) was 88 ± 29 mg/dL. It also gave a Urea nitrogen (mice [4]; 80 mg/kg) of 26 ± 5 mg/dL, a Creatinine (mice [4]; 160 mg/kg) of 0.64 ± 0.05 mg/dL and a Glucose (mice [4]; 160 mg/kg) of 97 ± 22 mg/dL. For the same compound, the Urea nitrogen (mice [4]; 160 mg/kg) was 26 ± 3 mg/dL, the Creatinine (mice [4]; 200 mg/kg) was 0.73 ± 0.06 mg/dL and the Glucose (mice [4]; 200 mg/kg) was 72 ± 16 mg/dL. For the same compound, the Urea nitrogen (mice [4]; 200 mg/kg) was 26 ± 2 mg/dL.

Work on `O=C(O)c1cc(C(=O)O)c2c(n1)c1nc(Cc3ccc(O)cc3)oc1c1cc(C(=O)O)[nH]c12` [4-Hydroxyphenylmethyl OPQ, 4-hydroxyphenylmethyl OPQ] yielded an IC50 [1] of 4.12 µM and an IC50 [2] of 314 µM.
